The values that follow come from patent EP4752152A1, “STEROID COMPOUND, AND PREPARATION METHOD THEREFOR AND USE THEREOF” (Cholesgen (Shanghai) Co.Ltd., priority 2023, dated 2025).

Molecules are shown by their SMILES.

One test relates to SREBP pathway. The test can be described thus: SREBP luciferase reporter gene system (SRE-luciferase assay). It counts as cell-based, human. As to conditions: Homo sapiens, Huh-7, 16 h, Huh-7/SRE-luc cells, sterol-deficient medium, 0.01-10 µM. As to the method: Huh-7/SRE-luc cells were incubated in sterol-deficient medium (5% lipoprotein deficient serum, 2 µM lovastatin, 10 µM mevalonic acid) with corresponding concentrations of compounds for 16 hours. The Huh-7/SRE-luc cells were human hepatoma cell line Huh-7 stably expressing LDLR promotor-luciferase and green fluorescent protein (GFP). These cells were obtained by transfecting Huh-7 with pLDLR-promotor-luciferase and pEGFP-N1 plasmids, followed by screening under G418 antibiotic selection pressure. The Huh-7 cells were purchased from ATCC, the pLDLR-promotor-luciferase plasmid was obtained by molecular cloning methods, and the pEGFP-N1 plasmid was purchased from Addgene.
After compound treatment, the cells were lysed with lysis buffer (E397A, Promega). After the addition of luciferase substrate (E1500, Promega), the activity of SRE-driven luciferase was measured using a BioTek Synergy HTX microplate reader (including but not limited to this type of instrument). The fluorescence intensity of green fluorescent protein (EGFP) was also measured using the above BioTek microplate reader (including but not limited to this type of instrument) and served as an internal control. The ratio of SRE-driven luciferase activity divided by the fluorescence intensity of green fluorescent protein was used as an indicator of SREBP pathway activity. The test data for each test compound were analyzed using Prism software (with the DMSO-treated group as the reference to calculate the compound inhibition rate, fitted using the Prism log(inhibitor) vs. response--Variable slope (four-parameter) model, calculation formula: Y = Bottom + (Top - Bottom)/(1 + 10^((LogIC50 - X) × HillSlope))), to obtain the IC50 parameters of the compounds.
Using the method described in 1.1, the inhibitory effect of the compounds of the present disclosure on the SREBP pathway was tested. The concentration gradient for each compound was designed as 0.01, 0.03, 0.1, 0.3, 1.0, 3.0, and 10 µM, with the vehicle DMSO as the control.
A general note: A reporter such as luciferase makes a cellular process visible.
As usually defined, the IC50 is the concentration at which inhibition is half-maximal. For `C[C@H](CCCC(O)c1ccc2c(c1)OC(F)(F)O2)[C@H]1CC[C@H]2[C@H]3[C@H](CC[C@]12C)[C@@]1(C)CC[C@H](O)[C@H](O)[C@@H]1CC3(F)F` (single isomer, unassigned) [Compound 258, (1R,3aS,3bS,5aR,6R,7S,9aR,9bS,11aR)-1-[(2R,6S)-6-(2,2-difluorobenzo[d][1,3]dioxol-5-yl)-6-hydroxyhexan-2-yl]-4,4-difluoro-9a,11a-dimethylhexadecahydro-1H-cyclopenta[1,2-a]phenanthrene-6,7-diol or (1R,3aS,3bS,5aR,6R,7S,9aR,9bS,11aR)-1-[(2R,6R)-6-(2,2-difluorobenzo[d][1,3]dioxol-5-yl)-6-hydroxyhexan-2-yl]-4,4-difluoro-9a,11a-dimethylhexadecahydro-1H-cyclopenta[1,2-a]phenanthrene-6,7-diol], the IC50 is 0.454 µM.

In the case of `C[C@H](CCC[C@H](O)c1nc2cnccc2n1C)[C@H]1CC[C@H]2[C@H]3[C@H](CC[C@]12C)[C@@]1(C)CC[C@H](O)[C@H](O)[C@@H]1CC3(F)F` [Compound 318, (1R,3aS,3bS,5aR,6R,7S,9aR,9bS,11aR)-4,4-difluoro-1-[(2R,6S)-6-hydroxy-6-(1-methylimidazo[5,4-c]pyridin-2-yl)hexan-2-yl]-9a,11a-dimethylhexadecahydro-1H-cyclopenta[1,2-a]phenanthrene-6,7-diol], the IC50 is 0.296 µM.

For `C[C@H](CCCC(O)c1c2ccccc2nn1C)[C@H]1CC[C@H]2[C@H]3[C@H](CC[C@]12C)[C@@]1(C)CC[C@H](O)[C@H](O)[C@@H]1CC3(F)F` (stereo partly drawn) [Compound 325, (1R,3aS,3bS,5aR,6R,7 S,9aR,9bS,11aR)-4,4-Difluoro-1-[(2R)-6-hydroxy-6-(2-methylindazol-3-yl)hexan-2-yl]-9a,11a-dimethylhexadecahydro-1H-cyclopenta[1,2-a]phenanthrene-6,7-diol], the concentration for half-maximal inhibition (IC50) was 0.148 µM.

With `COc1cccc(C(O)CCC[C@@H](C)[C@H]2CC[C@H]3[C@@H]4CC[C@H]5[C@@H](O)[C@@H](O)CC[C@]5(C)[C@H]4CC[C@]23C)c1` (stereo partly drawn) [Compound 5, 24-[hydroxy(3-methoxyphenyl)methyl]-5α-cholane-3β,4β-diol], the IC50 amounted to 0.13 µM.

On to `C[C@H](CCC1CC(=NO)C1)[C@H]1CC[C@H]2[C@@H]3CC[C@H]4C[C@@H](O)CC[C@]4(C)[C@H]3CC[C@]12C` (stereo partly drawn) [Compound 135, {3-[(3R)-3-[(1R,3aS,3bR,5aS,7S,9aS,9bS,11aR)-7-hydroxy-9a,11a-dimethylhexadecahydro-1H-cyclopenta[1,2-a]phenanthren-1-yl]butyl]cyclobutylidene}hydroxylamine], for which the IC50 stood at 4.03 µM.

As to `COc1cc(F)ccc1[C@@H](O)CCC[C@@H](C)[C@H]1CC[C@H]2C3=C(F)C[C@H]4[C@@H](O)[C@@H](O)CC[C@]4(C)[C@H]3CC[C@]12C` [Compound 133, (1R,3aR,5aR,6R,7S,9aR,9bR,11aR)-4-fluoro-1-[(2R,6S)-6-(4-fluoro-2-methoxyphenyl)-6-hydroxyhexan-2-yl]-9a,11a-dimethyl-2,3,3a,5,5a,6,7,8,9,9a,9b,10,11,11a-tetradecahydro-1H-cyclopenta[1,2-a]phenanthrene-6,7-diol], the IC50 is 0.095 µM.

Regarding `C[C@H](CCCC(O)c1nc2c(s1)CCOC2)[C@H]1CC[C@H]2[C@H]3[C@H](CC[C@]12C)[C@@]1(C)CC[C@H](O)[C@H](O)[C@@H]1CC3(F)F` (stereo partly drawn) [Compound 257, (1R,3aS,3bS,5aR,6R,7 S,9aR,9bS,11aR)-1-[(2R)-6-(6,7-Dihydro-4H-pyrano[3,4-d][1,3]thiazol-2-yl)-6-hydroxyhexan-2-yl]-4,4-difluoro-9a,11a-dimethylhexadecahyd ro-1H-cyclopenta[1,2-a]phenanthrene-6,7-diol], the IC50 is 0.154 µM.

`C[C@H](CCCC(O)c1cccc2cnn(C)c12)[C@H]1CC[C@H]2[C@H]3[C@H](CC[C@]12C)[C@@]1(C)CC[C@H](O)[C@H](O)[C@@H]1CC3(F)F` (stereo partly drawn) [Compound 207, (1R,3aS,3bS,5aR,6R,7 S,9aR,9bS,11aR)-4,4-Difluoro-1-[(2R)-6-hydroxy-6-(1-methylindazol-7-yl)hexan-2-yl]-9a,11a-dimethylhexadecahydro-1H-cyclopenta[1,2-a]phenanthrene-6,7-diol]: the half-inhibitory concentration (IC50) came out at 0.206 µM.

With `C[C@H](CCCC(O)c1c(F)cccc1F)[C@H]1CC[C@H]2[C@H]3[C@H](CC[C@]12C)[C@@]1(C)CC[C@H](O)[C@H](O)[C@@H]1CC3(F)F` (stereo partly drawn) [Compound 161, (1R,3aS,3bS,5aR,6R,7 S,9aR,9bS,11aR)-1-[(2R)-6-(2,6-Difluorophenyl)-6-hydroxyhexan-2-yl]-4,4-difluoro-9a,11a-dimethylhexadecahyd ro-1H-cyclopenta[1,2-a]phenanthrene-6,7-diol], the IC50 is 0.1 µM.

Take `COc1cc(F)nc(OC)c1[C@H](O)CCC[C@@H](C)[C@H]1CC[C@H]2[C@H]3[C@H](CC[C@]12C)[C@@]1(C)CC[C@H](O)[C@H](O)[C@@H]1CC3(F)F` (single isomer, unassigned) [Compound 264]: the half-maximal inhibitory concentration (IC50) was 0.189 µM.

`C[C@H](CCC[C@@H](O)c1nn(C)c2ccccc12)[C@H]1CC[C@H]2[C@H]3[C@H](CC[C@]12C)[C@@]1(C)CC[C@H](O)[C@H](O)[C@@H]1CC3(F)F` [Compound 324, (1R,3aS,3bS,5aR,6R,7S,9aR,9bS,11aR)-4,4-difluoro-1-[(2R,6R)-6-hydroxy-6-(1-methylindazol-3-yl)hexan-2-yl]-9a,11a-dimethylhexadecahydro-1H-cyclopenta[1,2-a]phenanthrene-6,7-diol]: the IC50 was found to be 1.51 µM.

Regarding `C[C@H](CCCC(O)c1ccc(F)nc1OCc1ccccc1)[C@H]1CC[C@H]2[C@H]3[C@H](CC[C@]12C)[C@@]1(C)CC[C@H](O)[C@H](O)[C@@H]1CC3(F)F` (stereo partly drawn) [Compound 281, (1R,3aS,3bS,5aR,6R,7S,9aR,9bS,11aR)-1-[(2R)-6-[2-(benzyloxy)-6-fluoropyridin-3-yl]-6-hydroxyhexan-2-yl]-4,4-difluoro-9a,11a-dimethylhexadecahydro-1H-cyclopenta[1,2-a]phenanthrene-6,7-diol], the IC50 came to 0.479 µM.

The test is the same for the next values; noted with them: Huh-7/SRE-luc cells, sterol-deficient medium, 16 hours, 0.01-10 µM.
On to `COc1ccnc(OC)c1C(O)CCC[C@@H](C)[C@H]1CC[C@H]2[C@H]3[C@H](CC[C@]12C)[C@@]1(C)CC[C@H](O)[C@H](O)[C@@H]1CC3(F)F` (single isomer, unassigned) [Compound 172, (1R,3aS,3bS,5aR,6R,7S,9aR,9bS,11aR)-1-[(2R,6R)-6-(2,4-dimethoxypyridin-3-yl)-6-hydroxyhexan-2-yl]-4,4-difluoro-9a,11a-dimethylhexadecahydro-1H-cyclopenta[1,2-a]phenanthrene-6,7-diol or (1R,3aS,3bS,5aR,6R,7S,9aR,9bS,11aR)-1-[(2R,6S)-6-(2,4-dimethoxypyridin-3-yl)-6-hydroxyhexan-2-yl]-4,4-difluoro-9a,11a-dimethylhexadecahydro-1H-cyclopenta[1,2-a]phenanthrene-6,7-diol], for which the IC50 amounted to 0.113 µM.
